Measured values: the NIST ThermoML archive (doi:10.1016/j.fluid.2010.03.040)

Details: Capillary rise

CCOC(=O)OCC [diethyl carbonate]
Details	surface tension liquid-gas [mN/m]
273.18 K	29.15
278.18 K	28.63
283.18 K	28.07
288.18 K	27.48
293.16 K	26.81
298.1 K	26.26
303.17 K	25.64
308.11 K	25.14
313.19 K	24.48
318.16 K	24.03
323.16 K	23.47
328.12 K	22.98
333.18 K	22.35
338.17 K	21.81
343.17 K	21.23
348.17 K	20.69
353.19 K	20.16
358.18 K	19.64
363.16 K	19.13
368.18 K	18.69
373.17 K	18.01

COCCOC [1,2-dimethoxyethane]
Details	surface tension liquid-gas [mN/m]
278.17 K	26.52
283.17 K	25.97
288.18 K	25.28
293.17 K	24.67
298.03 K	23.94
303.15 K	23.42
308.12 K	22.84
313.16 K	22.25
318.17 K	21.56
323.18 K	21.02
328.17 K	20.41
333.17 K	19.83
338.17 K	19.29
343.17 K	18.74
348.17 K	18.12
353.18 K	17.59
358.17 K	16.91
363.17 K	16.35
368.17 K	15.74
373.17 K	15.23

CCOC(=O)CCCCC(=O)OCC [diethyl hexanedioate]
Details	surface tension liquid-gas [mN/m]
293.16 K	32.7
298.09 K	32.2
303.17 K	31.6
308.11 K	31
313.18 K	30.3
318.15 K	29.7
323.17 K	29.2
328.12 K	28.7
333.16 K	28.3
338.16 K	27.7
343.15 K	27.2
348.13 K	26.6
353.16 K	26.2
358.13 K	25.8
363.13 K	25.3
368.15 K	24.8
373.14 K	24.3
